± gives the expanded uncertainty stated by the source.
Assay: mn = molality of the nth substance listed, in mol/kg
Conditions: 101 kPa, Liquid; for viscosity: Capillary tube (Ostwald / Ubbelohde) method; for mass density: Vibrating tube method

Cc1ccc(N)cc1N [4-methyl-1,3-benzendiamine] + CCCO
Conditions	mass density, 293.15 K [kg/m3]	mass density, 303.15 K [kg/m3]	mass density, 313.15 K [kg/m3]	mass density, 323.15 K [kg/m3]	mass density, 333.15 K [kg/m3]	viscosity, 293.15 K [mPa·s]	viscosity, 303.15 K [mPa·s]	viscosity, 313.15 K [mPa·s]	viscosity, 323.15 K [mPa·s]	viscosity, 333.15 K [mPa·s]
m1 = 0.05	805.47 ± 0.17	797.13 ± 0.17	788.94 ± 0.17	780.57 ± 0.17	771.96 ± 0.18	2.189 ± 0.014	1.71 ± 0.012	1.348 ± 0.009	1.074 ± 0.008	0.864 ± 0.006
m1 = 0.1003	807.05 ± 0.17	798.71 ± 0.17	790.49 ± 0.17	782.12 ± 0.17	773.5 ± 0.18	2.206 ± 0.015	1.723 ± 0.012	1.354 ± 0.009	1.079 ± 0.008	0.868 ± 0.006
m1 = 0.15	808.57 ± 0.17	800.22 ± 0.17	792.01 ± 0.17	783.62 ± 0.17	774.99 ± 0.18	2.225 ± 0.015	1.735 ± 0.012	1.365 ± 0.009	1.086 ± 0.008	0.875 ± 0.006
m1 = 0.1997	810.04 ± 0.17	801.7 ± 0.17	793.49 ± 0.17	785.09 ± 0.17	776.45 ± 0.18	2.247 ± 0.015	1.748 ± 0.012	1.372 ± 0.009	1.091 ± 0.008	0.878 ± 0.006
m1 = 0.2499	811.49 ± 0.17	803.17 ± 0.17	794.96 ± 0.17	786.55 ± 0.17	777.91 ± 0.18	2.267 ± 0.015	1.759 ± 0.012	1.382 ± 0.01	1.099 ± 0.008	0.883 ± 0.006
m1 = 0.2999	812.87 ± 0.17	804.6 ± 0.17	796.4 ± 0.17	787.99 ± 0.17	779.34 ± 0.18	2.294 ± 0.015	1.774 ± 0.012	1.389 ± 0.01	1.106 ± 0.008	0.889 ± 0.006
m1 = 0.3496	814.24 ± 0.17	805.98 ± 0.17	797.83 ± 0.17	789.4 ± 0.17	780.74 ± 0.17	2.315 ± 0.015	1.79 ± 0.012	1.401 ± 0.01	1.112 ± 0.008	0.893 ± 0.006
m1 = 0.3994	815.57 ± 0.17	807.34 ± 0.17	799.22 ± 0.17	790.77 ± 0.17	782.12 ± 0.17	2.338 ± 0.015	1.806 ± 0.012	1.412 ± 0.01	1.117 ± 0.008	0.899 ± 0.006

Cc1ccc(N)cc1N [4-methyl-1,3-benzendiamine] + CCO
Conditions	mass density, 293.15 K [kg/m3]	mass density, 303.15 K [kg/m3]	mass density, 313.15 K [kg/m3]	mass density, 323.15 K [kg/m3]	mass density, 333.15 K [kg/m3]	viscosity, 293.15 K [mPa·s]	viscosity, 303.15 K [mPa·s]	viscosity, 313.15 K [mPa·s]	viscosity, 323.15 K [mPa·s]	viscosity, 333.15 K [mPa·s]
m1 = 0.0503	791.4 ± 0.16	782.79 ± 0.16	774 ± 0.16	765.08 ± 0.17	755.96 ± 0.17	1.196 ± 0.008	0.982 ± 0.007	0.815 ± 0.006	0.68 ± 0.005	0.571 ± 0.004
m1 = 0.0999	793.18 ± 0.16	784.54 ± 0.16	775.74 ± 0.16	766.82 ± 0.17	757.7 ± 0.17	1.208 ± 0.008	0.995 ± 0.007	0.821 ± 0.006	0.685 ± 0.005	0.576 ± 0.004
m1 = 0.1497	794.92 ± 0.16	786.27 ± 0.16	777.46 ± 0.16	768.52 ± 0.17	759.41 ± 0.17	1.224 ± 0.008	1.004 ± 0.007	0.829 ± 0.006	0.691 ± 0.005	0.579 ± 0.004
m1 = 0.1994	796.64 ± 0.16	787.95 ± 0.16	779.14 ± 0.16	770.21 ± 0.17	761.1 ± 0.17	1.236 ± 0.008	1.015 ± 0.007	0.836 ± 0.006	0.696 ± 0.005	0.583 ± 0.004
m1 = 0.2494	798.32 ± 0.16	789.63 ± 0.16	780.81 ± 0.16	771.88 ± 0.17	762.76 ± 0.17	1.252 ± 0.008	1.027 ± 0.007	0.845 ± 0.006	0.703 ± 0.005	0.588 ± 0.004
m1 = 0.2997	799.96 ± 0.16	791.27 ± 0.16	782.46 ± 0.16	773.52 ± 0.16	764.42 ± 0.17	1.265 ± 0.008	1.037 ± 0.007	0.853 ± 0.006	0.708 ± 0.005	0.592 ± 0.004
m1 = 0.3496	801.58 ± 0.16	792.88 ± 0.16	784.07 ± 0.16	775.13 ± 0.16	766.03 ± 0.17	1.28 ± 0.008	1.046 ± 0.007	0.861 ± 0.006	0.714 ± 0.005	0.597 ± 0.004
m1 = 0.3994	803.15 ± 0.16	794.44 ± 0.16	785.66 ± 0.16	776.73 ± 0.16	767.62 ± 0.17	1.293 ± 0.008	1.059 ± 0.007	0.868 ± 0.006	0.72 ± 0.005	0.601 ± 0.004
m1 = 0.4496	804.71 ± 0.16	796.01 ± 0.16	787.24 ± 0.16	778.31 ± 0.16	769.19 ± 0.17	1.31 ± 0.008	1.068 ± 0.007	0.877 ± 0.006	0.727 ± 0.005	0.607 ± 0.004
m1 = 0.4995	806.25 ± 0.16	797.53 ± 0.16	788.77 ± 0.16	779.84 ± 0.16	770.7 ± 0.17	1.323 ± 0.009	1.079 ± 0.007	0.883 ± 0.006	0.731 ± 0.005	0.61 ± 0.004
m1 = 0.5492	807.75 ± 0.16	799.06 ± 0.16	790.28 ± 0.16	781.37 ± 0.16	772.2 ± 0.17	1.34 ± 0.009	1.09 ± 0.007	0.893 ± 0.006	0.739 ± 0.005	0.616 ± 0.004
m1 = 0.5989	809.18 ± 0.16	800.53 ± 0.16	791.76 ± 0.16	782.81 ± 0.16	773.66 ± 0.17	1.353 ± 0.009	1.101 ± 0.007	0.899 ± 0.006	0.743 ± 0.005	0.619 ± 0.004

Reference: the NIST ThermoML archive (doi:10.1021/je400968v)
